Assay [1] in a line: Compound was evaluated for the antibacterial activity against methicillin-resistant coagulase-negative staphylococci (MRCNS)as fold improvement in activity with respect to imipenem. It counts as functional, Staphylococcus […].
Assay [2] concerns Enterococcus. Description: Compound was evaluated for the antibacterial activity against Enterococcus as fold improvement in activity with respect to imipenem. It counts as functional.
Assay [3] has as its system coagulase-negative Staphylococcus. Description: Compound was evaluated for the anti-MRCNS activity as MIC50.
The subject of assay [4] is Pseudomonas aeruginosa. As to the kind of experiment: Compound was evaluated for the antibacterial activity against Pseudomonas aeruginosa as fold improvement in activity with respect to imipenem. It counts as functional.
In assay [5] the test system is Staphylococcus aureus. As to the kind of experiment: Compound was evaluated for the anti-MRSA activity as MIC50. It counts as functional.
Assay [6] concerns Enterobacter. As to the kind of experiment: Compound was evaluated for the antibacterial activity against Enterobacter as fold improvement in activity with respect to imipenem. It counts as functional.
For assay [7], the system named is Staphylococcus aureus. As to the kind of experiment: Compound was evaluated for the antibacterial activity against methicillin-resistant Staphylococcus aureus (MRSA)as fold improvement in activity with respect to imipenem. It counts as functional.
Assay [8] concerns Staphylococcus aureus. Description: Compound was evaluated for the anti-MRSA activity as MIC90. It counts as functional.
Assay [9] concerns Klebsiella. Description: Compound was evaluated for the antibacterial activity against Klebsiella.8 as fold improvement in activity with respect to imipenem. It counts as functional.
Assay [10] deals with Proteus. As to the kind of experiment: Compound was evaluated for the antibacterial activity against Proteus as fold improvement in activity with respect to imipenem. It counts as functional, Proteus sp.
The subject of assay [11] is Staphylococcus aureus. Description: Compound was evaluated for the antibacterial activity against methicillin-sensitive Staphylococcus aureus (MSSA)as fold improvement in activity with respect to imipenem. It counts as functional.
In assay [12] the test system is Serratia. Description: Compound was evaluated for the antibacterial activity against Serratia as fold improvement in activity with respect to imipenem. It counts as functional.
Assay [13] concerns Escherichia coli. Description: Compound was evaluated for the antibacterial activity against Escherichia coli as fold improvement in activity with respect to imipenem. It counts as functional.
The target in assay [14] is T1, Dipeptidase 1 (Sus scrofa) (UniProt P22412).
T1 sequence (whole entry): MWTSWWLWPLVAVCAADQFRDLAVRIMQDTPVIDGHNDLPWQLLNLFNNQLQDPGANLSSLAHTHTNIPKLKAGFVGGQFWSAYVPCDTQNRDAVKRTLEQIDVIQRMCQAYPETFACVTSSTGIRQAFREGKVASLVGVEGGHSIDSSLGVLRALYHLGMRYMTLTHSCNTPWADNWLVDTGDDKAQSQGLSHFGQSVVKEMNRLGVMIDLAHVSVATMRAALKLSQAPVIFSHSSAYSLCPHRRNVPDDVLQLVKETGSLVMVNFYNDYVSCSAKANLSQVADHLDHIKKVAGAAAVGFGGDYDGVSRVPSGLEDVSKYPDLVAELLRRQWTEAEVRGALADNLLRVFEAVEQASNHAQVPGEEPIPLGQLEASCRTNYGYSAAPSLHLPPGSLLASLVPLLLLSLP
As to the kind of experiment: Dehydropeptidase-1 susceptibility.

The subject of assay [15] is Klebsiella. As to the kind of experiment: Compound was evaluated for the antibacterial activity against Klebsiella as fold improvement in activity with respect to imipenem. It counts as functional.

Experimental findings from ChEMBL document CHEMBL1132139, “2-Naphthylcarbapenems: broad spectrum antibiotics with enhanced potency against MRSA” (1999) are described below.

≈ marks a conversion by molar mass, not a printed value.

As a reminder, the MIC50 is the lowest concentration that inhibits either 50% of growth or 50% of the strains tested, depending on the study. A lower MIC50 goes with greater potency. By MIC90 is commonly meant the lowest concentration that inhibits either 90% of growth or 90% of the strains tested, depending on the study. A low value points to greater potency.

As to `C[C@@H](O)[C@H]1C(=O)N2C(C(=O)[O-])=C(c3ccc4cccc(C[n+]5ccc(N)cc5)c4c3)C[C@H]12`, the Activity came to 40 in assay [1]; 2.4 in assay [2]; 0.01 in assay [4]; 0.03 in [6]; 20 in assay [7]; 0.04 in assay [9]. For the same molecule, the Activity in [10] is 0.48; in assay [11] it was 0.15; in assay [12] it was 0.07; in assay [13], 0.09; in assay [14], 0.01. For the same molecule, the MIC50 is 16 µg/mL (≈ 37.3 µM) in assay [3] and 8 µg/mL (≈ 18.6 µM) in [5]. The MIC90 in assay [8] came out at 8 µg/mL (≈ 18.6 µM).

As for `CC(O)C1C(=O)N2C(C(=O)O)=C(c3ccc4ccccc4c3)CC12` (stereo not drawn), the Activity in assay [1] stood at 2.7; in assay [2], 2.6; in assay [4], 0.01; in assay [6] it was 0.1; in [7], 3.3; in assay [9] it was 0.08. For the same molecule, the Activity in assay [10] is 2.8; in [11], 0.5; in assay [12], 0.09; in assay [13], 0.31; in assay [14] it was 0.09.

As to `C[C@@H](O)[C@H]1C(=O)N2C(C(=O)[O-])=C(c3ccc4cc(C[n+]5ccc(N)cc5)ccc4c3)C[C@H]12`, the Activity is listed as 77 in assay [1]; 2.7 in [2]; 0.02 in assay [4]; 0.92 in assay [6]; 18 in assay [7]; 0.4 in [15]. In addition, the Activity in assay [10] stood at 10; in assay [11], 0.45; in assay [12] it was 1.8; in assay [13] it was 1.4; in assay [14], 0.26. The MIC50 in assay [3] stood at 8 µg/mL (≈ 18.6 µM); in [5], 4 µg/mL (≈ 9.31 µM). Further, the MIC90 in assay [8] was 8 µg/mL (≈ 18.6 µM).

Regarding `CN[C@H](CC(C)C)C(=O)N[C@H]1C(=O)N[C@@H](CC(N)=O)C(=O)N[C@H]2C(=O)N[C@H]3C(=O)N[C@H](C(=O)N[C@H](C(=O)O)c4cc(O)cc(O)c4-c4cc3ccc4O)[C@H](O)c3ccc(c(Cl)c3)Oc3cc2cc(c3O[C@@H]2O[C@H](CO)[C@@H](O)[C@H](O)[C@H]2O[C@H]2C[C@](C)(N)[C@H](O)[C@H](C)O2)Oc2ccc(cc2Cl)[C@H]1O` [VANCOMYCIN], the MIC50 was 4 µg/mL (≈ 2.76 µM) in assay [3] and 2 µg/mL (≈ 1.38 µM) in [5]. In assay [8], this molecule had an MIC90 of 2 µg/mL (≈ 1.38 µM).

On to `C[C@H](O)[C@H]1C(=O)N2C(C(=O)[O-])=C(c3cc(C[n+]4ccc(N)cc4)c4ccccc4c3)C[C@H]12`, for which the Activity was determined as 24 in assay [1]; 2.2 in [2]; 0.01 in assay [4]; 0.02 in assay [6]; 11 in [7]; 0.02 in [9]. In addition, the Activity is 0.19 in [10]; 0.42 in assay [11]; 0.02 in assay [12]; 0.06 in [13]; 0.01 in assay [14].

In the case of `C[C@@H](O)[C@H]1C(=O)N2C(C(=O)[O-])=C(c3ccc4cc(C[n+]5cccc(N)c5)ccc4c3)C[C@H]12`, the Activity in assay [1] is on record as 44; in assay [2], 2.3; in [4], 0.02; in assay [6], 0.64; in assay [7], 13; in [9], 0.43. Also, the Activity was determined as 6.5 in assay [10]; 0.53 in assay [11]; 3 in [12]; 1.3 in assay [13]; 0.15 in assay [14].

With `C[C@@H](O)[C@H]1C(=O)N2C(C(=O)[O-])=C(c3ccc4c(C[n+]5ccc(N)cc5)cccc4c3)C[C@H]12`, the Activity is listed as 77 in assay [1]; 2.7 in [2]; 0.02 in assay [4]; 0.18 in [6]; 12 in assay [7]; 0.21 in assay [9]. Besides, the Activity in [10] stood at 15; in assay [11], 0.42; in assay [12], 0.69; in [13] it was 0.4; in assay [14], 0.03.

For the molecule `C[C@@H](O)[C@H]1C(=O)N2C(C(=O)[O-])=C(c3ccc(C[n+]4ccccc4N)cc3)C[C@H]12`, the Activity came to 1.6 in assay [1]; 12.9 in assay [2]; 0.02 in assay [4]; 3 in assay [6]; 2 in assay [7]; 1.1 in assay [9]. The Activity in [10] amounted to 4.2; in [11] it was 0.5; in assay [12] it was 4.4; in [13], 1.7; in assay [14], 0.11.

As for `C[C@H](O)[C@H]1C(=O)N2C(C(=O)[O-])=C(c3cc(C[n+]4ccccc4N)c4ccccc4c3)C[C@H]12`, the Activity in [1] turned out to be 1.9; in assay [2], 2.2; in assay [4] it was 0.01; in [6] it was 0.01; in [7], 1.4; in assay [9] it was 0.02. The Activity in [10] is 0.1; in [11] it was 0.13; in [12], 0.02; in assay [13], 0.04; in assay [14], 0.01.

For the molecule `C[C@@H](O)[C@H]1C(=O)N2C(C(=O)[O-])=C(c3ccc4cccc(C[n+]5ccccc5N)c4c3)C[C@H]12`, the Activity in assay [1] was 8; in assay [2] it was 2.1; in assay [4], 0.02; in assay [6] it was 0.01; in [7], 4.9; in assay [9] it was 0.03. Also, the Activity in assay [10] was 0.22; in [11] it was 0.1; in assay [12], 0.05; in assay [13], 0.04; in assay [14] it was 0.

As for `C[C@@H](O)[C@H]1C(=O)N2C(C(=O)[O-])=C(c3cc(C[n+]4cccc(N)c4)c4ccccc4c3)C[C@H]12`, the Activity in assay [1] is 12; in [2] it was 3.2; in assay [4], 0.01; in [6] it was 0.02; in assay [7], 6.9; in assay [9], 0.01. Moreover, the Activity in assay [10] stood at 0.13; in [11], 0.39; in [12], 0.03; in [13], 0.09; in [14], 0.01.

In the case of `C[C@@H](O)[C@H]1C(=O)N2C(C(=O)[O-])=C(c3ccc4cc(C[n+]5ccccc5N)ccc4c3)C[C@H]12`, the Activity in [1] was determined as 323; in [2], 4.4; in assay [4] it was 0.02; in assay [6], 0.85; in [7], 28; in assay [9], 0.38. Besides, the Activity in assay [10] was determined as 5; in assay [11] it was 0.39; in assay [12] it was 2; in assay [13], 1.4; in assay [14], 0.2. The results for the MIC50 in [3] and in assay [5] were 8 µg/mL (≈ 18.6 µM) and 2 µg/mL (≈ 4.66 µM), respectively. The same molecule gave an MIC90 in assay [8] of 4 µg/mL (≈ 9.31 µM).

For the molecule `C[C@H](O)[C@H]1C(=O)N2C(C(=O)[O-])=C(c3cccc(-c4ccc(C[n+]5ccccc5N)cc4)c3)C[C@H]12`, the Activity is listed as 232 in assay [1]; 6.2 in assay [2]; 0.01 in assay [4]; 0.04 in assay [6]; 154 in assay [7]; 0.04 in assay [9]. Moreover, the Activity was 0.38 in [10]; 0.43 in [11]; 0.11 in assay [12]; 0.11 in assay [13]; 0.04 in assay [14]. Besides, the MIC50 in assay [3] was 2 µg/mL (≈ 4.39 µM); in assay [5], 1 µg/mL (≈ 2.2 µM). In [8], this molecule yielded an MIC90 of 2 µg/mL (≈ 4.39 µM).

Take `C[C@@H](O)[C@H]1C(=O)N2C(C(=O)[O-])=C(c3ccc4ccc(C[n+]5ccc(N)cc5)cc4c3)C[C@H]12`: the Activity in assay [1] turned out to be 55; in assay [2], 4.9; in assay [4], 0.01; in assay [6], 0.17; in assay [7] it was 16; in assay [9], 0.25. Moreover, the Activity in assay [10] came to 3.2; in assay [11], 0.53; in assay [12], 0.97; in assay [13] it was 0.33; in [14], 0.07.
